Measured values from ChEMBL document CHEMBL1132738, “Carbohydrate-modulated DNA photocleavage: design, synthesis, and evaluation of novel glycosyl anthraquinones” (Bioorg Med Chem Lett, 2000).
pIC50: −log10 of the molar value.

Assays:
[1] = tested on: HeLa; test: The compound was evaluated for its inhibitory activity against HeLa S3 cells in the absence of photoirradiation.; format: functional, cell-based; conditions: Homo sapiens, light or radiation study
[2] = tested on: HeLa; test: The compound was evaluated for its inhibitory activity against HeLa S3 cells in the presence of photoirradiation.; format: functional, cell-based; conditions: Homo sapiens, light or radiation study

Structure (SMILES)	pIC50 [1]	pIC50 [2]
C[C@@H]1O[C@@H](OCc2ccc3c(c2O)C(=O)c2ccccc2C3=O)C[C@@H](N(C)C)[C@@H]1O	5.06	5.72
CC1OC(c2ccc3c(c2O)C(=O)c2ccccc2C3=O)CC(N(C)C)C1O (stereo unspecified)	5.05	5.32
C[C@@H]1O[C@H](OCc2ccc3c(c2O)C(=O)c2ccccc2C3=O)C[C@@H](N(C)C)[C@@H]1O	4.89	5.37
